Results published in PubChem BioAssay AID1919014 (Molecular Pharmacology Branch, DTP, NCI, 2023).

Test system: NCI-H1341 complex spheroids, percent test/control
Assay: Anticancer human tumor NCI-H1341 cell line growth inhibition [AhR];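 also: spheroids exposed to agents for seven days before readout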
Conditions: for IC50: curve of first compound; for viability, T/C: stronger effect = lower value
Method in brief: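 Agents were dosed in half-log steps down from roughly clinical Cmax, or from 10 microM where Cmax was unknown, alone and with AhR antagonists. Read-out: percent test/control growth of tumor spheroids containing HUVEC and MSC stromal cells.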

[1] = second compound 0.1 µM, first compound 0.0316 µM
[2] = second compound 0.1 µM, first compound 0.1 µM
[3] = second compound 0.1 µM, first compound 0.316 µM
[4] = second compound 0.1 µM, first compound 1 µM
[5] = second compound 0.1 µM, first compound 3.16 µM
[6] = second compound 0.1 µM, first compound 10 µM
[7] = second compound 0.316 µM, first compound 0.0316 µM
[8] = second compound 0.316 µM, first compound 0.1 µM
[9] = second compound 0.316 µM, first compound 0.316 µM
[10] = second compound 0.316 µM, first compound 1 µM
[11] = second compound 0.316 µM, first compound 3.16 µM
[12] = second compound 0.316 µM, first compound 10 µM
[13] = second compound 1 µM, first compound 0.0316 µM
[14] = second compound 1 µM, first compound 0.1 µM
[15] = second compound 1 µM, first compound 0.316 µM
[16] = second compound 1 µM, first compound 1 µM
[17] = second compound 1 µM, first compound 3.16 µM
[18] = second compound 1 µM, first compound 10 µM
[19] = second compound 3.16 µM, first compound 0.0316 µM
[20] = second compound 3.16 µM, first compound 0.1 µM
[21] = second compound 3.16 µM, first compound 0.316 µM
[22] = second compound 3.16 µM, first compound 1 µM
[23] = second compound 3.16 µM, first compound 3.16 µM
[24] = second compound 3.16 µM, first compound 10 µM
[25] = second compound 10 µM, first compound 0.0316 µM
[26] = second compound 10 µM, first compound 0.1 µM
[27] = second compound 10 µM, first compound 0.316 µM
[28] = second compound 10 µM, first compound 1 µM
[29] = second compound 10 µM, first compound 3.16 µM
[30] = second compound 10 µM, first compound 10 µM

SMILES	IC50 (second compound 0.1 µM) [µM]	IC50 (second compound 0.316 µM) [µM]	IC50 (second compound 1 µM) [µM]	IC50 (second compound 3.16 µM) [µM]	IC50 (second compound 10 µM) [µM]	viability, T/C [1] [%]	viability, T/C [2] [%]	viability, T/C [3] [%]	viability, T/C [4] [%]	viability, T/C [5] [%]	viability, T/C [6] [%]	viability, T/C [7] [%]	viability, T/C [8] [%]	viability, T/C [9] [%]	viability, T/C [10] [%]	viability, T/C [11] [%]	viability, T/C [12] [%]	viability, T/C [13] [%]	viability, T/C [14] [%]	viability, T/C [15] [%]	also measured
Nc1ccn(C2OC(CO)C(O)C2(F)F)c(=O)n1 (stereo not given) + Cc1cncc(-c2nc(NCCc3c[nH]c4ccccc34)c3ncn(C(C)C)c3n2)c1	< 0.0316	< 0.0316	< 0.0316	< 0.0316	< 0.0316	28.4	28.2	25.5	25.2	27.6	20.8	30.6	28.5	25.9	25.6	22.7	21.5	29.2	31.7	27.9	viability, T/C [16]: 26.4%; viability, T/C [17]: 24.3%; viability, T/C [18]: 20.9%; viability, T/C [19]: 32.8%; viability, T/C [20]: 27.1%; viability, T/C [21]: 28.5%; viability, T/C [22]: 27%; viability, T/C [23]: 26.8%; viability, T/C [24]: 21.6%; viability, T/C [25]: 36.6%; viability, T/C [26]: 23.7%; viability, T/C [27]: 28.9%; viability, T/C [28]: 27.3%; viability, T/C [29]: 30.8%; viability, T/C [30]: 23.1%
CC1(C)CCC(CN2CCN(c3ccc(C(=O)NS(=O)(=O)c4ccc(NCC5CCOCC5)c([N+](=O)[O-])c4)c(Oc4cnc5[nH]ccc5c4)c3)CC2)=C(c2ccc(Cl)cc2)C1 + CC(CO)NC(=O)c1cc(-c2ccc(Cl)cc2)nn(-c2cnn(C)c2)c1=O	2.37	2.15	1.71	1.81	1.24	66.6	74.9	71.8	71.1	43	12.9	76.7	76.5	72.3	63.8	43.1	11.7	83.4	74.4	65.1	viability, T/C [16]: 61.4%; viability, T/C [17]: 41.4%; viability, T/C [18]: 11.3%; viability, T/C [19]: 76.5%; viability, T/C [20]: 88.8%; viability, T/C [21]: 83.8%; viability, T/C [22]: 63%; viability, T/C [23]: 36.5%; viability, T/C [24]: 12.4%; viability, T/C [25]: 65.7%; viability, T/C [26]: 84.7%; viability, T/C [27]: 65.6%; viability, T/C [28]: 54.1%; viability, T/C [29]: 30.2%; viability, T/C [30]: 9.65%
CC1(C)CCC(CN2CCN(c3ccc(C(=O)NS(=O)(=O)c4ccc(NCC5CCOCC5)c([N+](=O)[O-])c4)c(Oc4cnc5[nH]ccc5c4)c3)CC2)=C(c2ccc(Cl)cc2)C1 + Cc1ccccc1N=Nc1ccc(NC(=O)c2ccnn2C)c(C)c1	1.97	2.26	1.99	0.539	< 0.0316	96.5	86	96	60.5	41.3	12.6	100	82.3	94.2	78.3	38.1	14.3	80.3	70.2	84.2	viability, T/C [16]: 72.3%; viability, T/C [17]: 34.6%; viability, T/C [18]: 14.1%; viability, T/C [19]: 80%; viability, T/C [20]: 54.4%; viability, T/C [21]: 61%; viability, T/C [22]: 46.7%; viability, T/C [23]: 30.1%; viability, T/C [24]: 16.5%; viability, T/C [25]: 44.2%; viability, T/C [26]: 39.9%; viability, T/C [27]: 44.5%; viability, T/C [28]: 35.4%; viability, T/C [29]: 22%; viability, T/C [30]: 12.8%
COc1cc(C2c3cc4c(cc3C(OC3OC5COC(C)OC5C(O)C3O)C3COC(=O)C23)OCO4)cc(OC)c1O (stereo not given) + CC(CO)NC(=O)c1cc(-c2ccc(Cl)cc2)nn(-c2cnn(C)c2)c1=O	1.19	0.673	0.471	0.294	0.135	85.9	84.6	65.2	50.4	44.8	33.3	72.4	69.1	55.5	44.8	39.4	28.7	74.2	76.5	54.4	viability, T/C [16]: 44.3%; viability, T/C [17]: 41.3%; viability, T/C [18]: 36.1%; viability, T/C [19]: 74.6%; viability, T/C [20]: 75.6%; viability, T/C [21]: 48.2%; viability, T/C [22]: 40.2%; viability, T/C [23]: 41.1%; viability, T/C [24]: 28.6%; viability, T/C [25]: 63.5%; viability, T/C [26]: 56.8%; viability, T/C [27]: 40.6%; viability, T/C [28]: 33.4%; viability, T/C [29]: 33.2%; viability, T/C [30]: 27.3%
Nc1ccccc1NC(=O)c1ccc(CNC(=O)OCc2cccnc2)cc1 + Cc1ccccc1N=Nc1ccc(NC(=O)c2ccnn2C)c(C)c1	0.582	0.604	0.596	0.647	0.38	91.8	84.5	65.2	37.4	9.11	0.66	89.9	88.7	70.3	33.6	9.54	1.08	120	98.6	76.3	viability, T/C [16]: 30.1%; viability, T/C [17]: 7.04%; viability, T/C [18]: 0.78%; viability, T/C [19]: 85.9%; viability, T/C [20]: 86.7%; viability, T/C [21]: 62%; viability, T/C [22]: 43.1%; viability, T/C [23]: 12.5%; viability, T/C [24]: 0.88%; viability, T/C [25]: 49.7%; viability, T/C [26]: 53.3%; viability, T/C [27]: 58.7%; viability, T/C [28]: 37.8%; viability, T/C [29]: 18.8%; viability, T/C [30]: 3.01%
